Laboratory results as given in article PMC6403222, “Identification of a novel class of RIP1/RIP3 dual inhibitors that impede cell death and inflammation in mouse abdominal aortic aneurysm models” (Cell Death & Disease, 2019).

Tests used:
CSF1R [1] = target: T1, CSF1R (Homo sapiens, UniProt P07333); assay: KINOMEscan competition binding, single concentration […]; details: read-out: % of control at 100 nM
EPHB6 [2] = target: T2, EPHB6 (Homo sapiens, UniProt O15197); assay: as above; details: read-out: % of control at 100 nM
KIT [3] = target: T3, KIT (Homo sapiens, UniProt P10721); assay: as above; details: read-out: % of control at 100 nM
RIP1 [4] = target: T4, RIP1 (Homo sapiens, UniProt Q13546); assay: KINOMEscan competition binding Kd; also ADP-Glo kinase inhibition
T4 construct: gene RIPK1; kinase domain

RIP3 = target: T5, RIP3 (Homo sapiens, UniProt Q9Y572); assay: as above
T5 construct: gene RIPK3; kinase domain

MST1 = target: T6, MST1 (Homo sapiens, UniProt Q13043); assay: biochemical; parameters: KINOMEscan competition binding assay (DiscoveRx), per cent of control at 100 nM; details: competition binding, per cent of DMSO control; read-out: Percent Control
T6 construct: gene STK4
Protocol: (§1) The selectivity of GSK’074 was evaluated using KINOMEscan™ profiling service (DiscoveRx Corporation, Fremont, CA). In brief, an in vitro competition binding assay was used to evaluate GSK’074 specificity at a concentration of 100 nM against 468 human kinases including 403 non-mutant kinases and 65 mutant kinases, as described previously[33],[50]. KINOMEscan™ was also used to determine binding constants (Kd) for GSK’074 against RIP1 and RIP3. In brief, an 11-point threefold serial dilution of GSK’074 was prepared in 100% DMSO at 100× final test concentration and subsequently diluted to 1× in the assay buffer. Kds were calculated with a standard dose-response curve using the Hill equation. Curves were fitted using a non-linear least square fit with the Levenberg–Marquardt algorithm. Next, we investigated the selectivity profile of GSK’074 against a panel of 468 kinases, including 403 non-mutant kinases using the KINOMEscan™ profiling service. […] KIT, MEK5, CSF1R, or EPHB6 had no established roles in cell death and their expression levels in SMCs, with the exception of MEK5, were negligible (Supplementary Figure 3).  Fig. 6 Selectivity profile of GSK’074. Binding of GSK’074 (100 nM) against 468 human kinases (403 non-mutant kinases, 65 mutant kinases) was assessed by DiscoveRx KINOMEscan™. a Selectivity scores of GSK’074. Selectivity score was defined as the number of non-mutant kinases bound to GSK’074 <35% of control (S(35)), 10% of control (S(10)), or 1% of control (S(1)). b TREEspot map of kinases potentially targeted by GSK’074.

CSF1R [5] = target: T1, CSF1R; assay: biochemical; parameters: KINOMEscan competition binding assay (DiscoveRx), per cent of control at 100 nM; details: competition binding, per cent of DMSO control; read-out: Percent Control
Protocol: as §1

KIT(L576P) = KIT(L576P) (Homo sapiens, UniProt P10721, L576P); assay: biochemical; parameters: KINOMEscan competition binding assay (DiscoveRx), per cent of control at 100 nM; details: competition binding, per cent of DMSO control; read-out: Percent Control
Protocol: as §1

PRKD2 = PRKD2 (Homo sapiens, UniProt Q9BZL6); assay: biochemical; parameters: KINOMEscan competition binding assay (DiscoveRx), per cent of control at 100 nM; details: competition binding, per cent of DMSO control; read-out: Percent Control
Protocol: as §1

MAP4K5 = MAP4K5 (Homo sapiens, UniProt Q9Y4K4); assay: biochemical; parameters: KINOMEscan competition binding assay (DiscoveRx), per cent of control at 100 nM; details: competition binding, per cent of DMSO control; read-out: Percent Control
Protocol: as §1

[6] = target: T7, ABL1(H396P)-nonphosphorylated (Homo sapiens, UniProt P00519, H396P); assay: biochemical; parameters: KINOMEscan competition binding assay (DiscoveRx), per cent of control at 100 nM; details: competition binding, per cent of DMSO control; read-out: Percent Control
T7 construct: nonphosphorylated
Protocol: as §1

AURKC = AURKC (Homo sapiens, UniProt Q9UQB9); assay: biochemical; parameters: KINOMEscan competition binding assay (DiscoveRx), per cent of control at 100 nM; details: competition binding, per cent of DMSO control; read-out: Percent Control
Protocol: as §1

[7] = target: T8, ABL1(E255K)-phosphorylated (Homo sapiens, UniProt P00519, E255K); assay: biochemical; parameters: KINOMEscan competition binding assay (DiscoveRx), per cent of control at 100 nM; details: competition binding, per cent of DMSO control; read-out: Percent Control
T8 construct: phosphorylated
Protocol: as §1

[8] = target: T9, ABL1(T315I)-phosphorylated (Homo sapiens, UniProt P00519, T315I); assay: biochemical; parameters: KINOMEscan competition binding assay (DiscoveRx), per cent of control at 100 nM; details: competition binding, per cent of DMSO control; read-out: Percent Control
T9 construct: phosphorylated
Protocol: as §1

FLT3 = FLT3 (Homo sapiens, UniProt P36888); assay: biochemical; parameters: KINOMEscan competition binding assay (DiscoveRx), per cent of control at 100 nM; details: competition binding, per cent of DMSO control; read-out: Percent Control
Protocol: as §1

KIT(V559D) = KIT(V559D) (Homo sapiens, UniProt P10721, V559D); assay: biochemical; parameters: KINOMEscan competition binding assay (DiscoveRx), per cent of control at 100 nM; details: competition binding, per cent of DMSO control; read-out: Percent Control
Protocol: as §1

ABL1-nonphosphorylated = target: T10, ABL1-nonphosphorylated (Homo sapiens, UniProt P00519); assay: biochemical; parameters: KINOMEscan competition binding assay (DiscoveRx), per cent of control at 100 nM; details: competition binding, per cent of DMSO control; read-out: Percent Control
T10 construct: nonphosphorylated
Protocol: as §1

RIPK2 = RIPK2 (Homo sapiens, UniProt O43353); assay: biochemical; parameters: KINOMEscan competition binding assay (DiscoveRx), per cent of control at 100 nM; details: competition binding, per cent of DMSO control; read-out: Percent Control
Protocol: as §1

MEK5 [9] = target: T11, MEK5 (Homo sapiens, UniProt Q13163); assay: biochemical; parameters: KINOMEscan competition binding assay (DiscoveRx), per cent of control at 100 nM; details: competition binding, per cent of DMSO control; read-out: Percent Control
T11 construct: gene MAP2K5
Protocol: as §1

ABL1-phosphorylated = target: T12, ABL1-phosphorylated (Homo sapiens, UniProt P00519); assay: biochemical; parameters: KINOMEscan competition binding assay (DiscoveRx), per cent of control at 100 nM; details: competition binding, per cent of DMSO control; read-out: Percent Control
T12 construct: phosphorylated
Protocol: as §1

[10] = target: T13, ABL1(Q252H)-nonphosphorylated (Homo sapiens, UniProt P00519, Q252H); assay: biochemical; parameters: KINOMEscan competition binding assay (DiscoveRx), per cent of control at 100 nM; details: competition binding, per cent of DMSO control; read-out: Percent Control
T13 construct: nonphosphorylated
Protocol: as §1

AURKB = AURKB (Homo sapiens, UniProt Q96GD4); assay: biochemical; parameters: KINOMEscan competition binding assay (DiscoveRx), per cent of control at 100 nM; details: competition binding, per cent of DMSO control; read-out: Percent Control
Protocol: as §1

PDGFRB = PDGFRB (Homo sapiens, UniProt P09619); assay: biochemical; parameters: KINOMEscan competition binding assay (DiscoveRx), per cent of control at 100 nM; details: competition binding, per cent of DMSO control; read-out: Percent Control
Protocol: as §1

KIT [11] = target: T3, KIT; assay: biochemical; parameters: KINOMEscan competition binding assay (DiscoveRx), per cent of control at 100 nM; details: competition binding, per cent of DMSO control; read-out: Percent Control
Protocol: as §1

HPK1 = target: T14, HPK1 (Homo sapiens, UniProt Q92918); assay: biochemical; parameters: KINOMEscan competition binding assay (DiscoveRx), per cent of control at 100 nM; details: competition binding, per cent of DMSO control; read-out: Percent Control
T14 construct: gene MAP4K1
Protocol: as §1

PDGFRA = PDGFRA (Homo sapiens, UniProt P16234); assay: biochemical; parameters: KINOMEscan competition binding assay (DiscoveRx), per cent of control at 100 nM; details: competition binding, per cent of DMSO control; read-out: Percent Control
Protocol: as §1

FLT3(K663Q) = FLT3(K663Q) (Homo sapiens, UniProt P36888, K663Q); assay: biochemical; parameters: KINOMEscan competition binding assay (DiscoveRx), per cent of control at 100 nM; details: competition binding, per cent of DMSO control; read-out: Percent Control
Protocol: as §1

[12] = target: T15, ABL1(T315I)-nonphosphorylated (Homo sapiens, UniProt P00519, T315I); assay: biochemical; parameters: KINOMEscan competition binding assay (DiscoveRx), per cent of control at 100 nM; details: competition binding, per cent of DMSO control; read-out: Percent Control
T15 construct: nonphosphorylated
Protocol: as §1

RIP1 [13] = target: T4, RIP1; assay: biochemical; parameters: KINOMEscan competition binding assay (DiscoveRx), per cent of control at 100 nM; details: competition binding, per cent of DMSO control; read-out: Percent Control
Protocol: as §1

LOK = target: T16, LOK (Homo sapiens, UniProt O94804); assay: biochemical; parameters: KINOMEscan competition binding assay (DiscoveRx), per cent of control at 100 nM; details: competition binding, per cent of DMSO control; read-out: Percent Control
T16 construct: gene STK10
Protocol: as §1

EPHB6 [14] = target: T2, EPHB6; assay: biochemical; parameters: KINOMEscan competition binding assay (DiscoveRx), per cent of control at 100 nM; details: competition binding, per cent of DMSO control; read-out: Percent Control
Protocol: as §1

MEK5 [15] = target: T11, MEK5; assay: KINOMEscan competition binding, single concentration […]; details: read-out: % of control at 100 nM

T4 sequence (Q13546 1-294 limits assumed): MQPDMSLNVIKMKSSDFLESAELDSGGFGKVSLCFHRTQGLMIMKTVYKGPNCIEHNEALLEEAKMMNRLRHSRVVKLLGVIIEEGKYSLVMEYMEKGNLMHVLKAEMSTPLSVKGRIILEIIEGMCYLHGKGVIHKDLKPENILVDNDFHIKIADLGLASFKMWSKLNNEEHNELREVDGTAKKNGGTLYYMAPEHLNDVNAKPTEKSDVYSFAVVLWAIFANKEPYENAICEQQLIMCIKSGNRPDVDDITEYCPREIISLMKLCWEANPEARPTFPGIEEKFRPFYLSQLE
T1 sequence (P07333 20-972): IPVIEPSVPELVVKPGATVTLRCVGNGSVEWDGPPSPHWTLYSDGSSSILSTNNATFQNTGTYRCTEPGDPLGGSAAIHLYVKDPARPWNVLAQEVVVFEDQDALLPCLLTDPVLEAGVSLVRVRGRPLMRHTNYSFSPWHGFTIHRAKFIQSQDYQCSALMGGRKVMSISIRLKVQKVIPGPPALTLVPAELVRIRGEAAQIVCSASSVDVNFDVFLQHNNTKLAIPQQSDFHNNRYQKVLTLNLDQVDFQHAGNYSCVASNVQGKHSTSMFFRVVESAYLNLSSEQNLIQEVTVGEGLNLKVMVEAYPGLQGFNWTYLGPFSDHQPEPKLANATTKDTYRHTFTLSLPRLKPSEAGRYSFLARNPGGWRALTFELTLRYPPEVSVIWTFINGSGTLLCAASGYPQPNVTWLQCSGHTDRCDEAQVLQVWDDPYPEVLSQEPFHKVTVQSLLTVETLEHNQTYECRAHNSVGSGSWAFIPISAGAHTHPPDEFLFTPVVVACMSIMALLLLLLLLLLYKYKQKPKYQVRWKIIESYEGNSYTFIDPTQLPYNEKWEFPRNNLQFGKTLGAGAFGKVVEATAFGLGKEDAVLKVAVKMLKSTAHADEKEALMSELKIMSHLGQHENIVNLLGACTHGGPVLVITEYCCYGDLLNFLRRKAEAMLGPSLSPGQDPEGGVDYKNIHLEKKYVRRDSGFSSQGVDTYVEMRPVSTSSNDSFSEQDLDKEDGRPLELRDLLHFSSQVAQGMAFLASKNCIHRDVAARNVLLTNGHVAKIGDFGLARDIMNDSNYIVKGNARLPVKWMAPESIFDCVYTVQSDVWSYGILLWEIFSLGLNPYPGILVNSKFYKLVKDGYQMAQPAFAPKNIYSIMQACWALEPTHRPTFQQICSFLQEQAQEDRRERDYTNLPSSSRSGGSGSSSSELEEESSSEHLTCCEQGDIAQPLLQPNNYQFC
T11 sequence (Q13163 whole entry): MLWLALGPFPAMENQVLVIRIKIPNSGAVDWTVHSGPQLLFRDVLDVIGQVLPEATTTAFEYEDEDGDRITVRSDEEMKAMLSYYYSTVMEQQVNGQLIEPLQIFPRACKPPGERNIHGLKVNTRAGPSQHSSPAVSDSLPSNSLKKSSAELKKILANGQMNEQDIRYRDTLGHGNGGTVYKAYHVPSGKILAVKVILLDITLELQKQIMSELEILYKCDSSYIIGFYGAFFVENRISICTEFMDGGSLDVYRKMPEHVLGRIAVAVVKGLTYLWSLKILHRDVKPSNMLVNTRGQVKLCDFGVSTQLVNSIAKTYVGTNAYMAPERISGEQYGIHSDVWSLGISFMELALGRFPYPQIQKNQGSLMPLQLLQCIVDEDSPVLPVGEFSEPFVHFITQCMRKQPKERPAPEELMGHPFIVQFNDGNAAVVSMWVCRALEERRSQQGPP
T3 sequence (P10721 26-976): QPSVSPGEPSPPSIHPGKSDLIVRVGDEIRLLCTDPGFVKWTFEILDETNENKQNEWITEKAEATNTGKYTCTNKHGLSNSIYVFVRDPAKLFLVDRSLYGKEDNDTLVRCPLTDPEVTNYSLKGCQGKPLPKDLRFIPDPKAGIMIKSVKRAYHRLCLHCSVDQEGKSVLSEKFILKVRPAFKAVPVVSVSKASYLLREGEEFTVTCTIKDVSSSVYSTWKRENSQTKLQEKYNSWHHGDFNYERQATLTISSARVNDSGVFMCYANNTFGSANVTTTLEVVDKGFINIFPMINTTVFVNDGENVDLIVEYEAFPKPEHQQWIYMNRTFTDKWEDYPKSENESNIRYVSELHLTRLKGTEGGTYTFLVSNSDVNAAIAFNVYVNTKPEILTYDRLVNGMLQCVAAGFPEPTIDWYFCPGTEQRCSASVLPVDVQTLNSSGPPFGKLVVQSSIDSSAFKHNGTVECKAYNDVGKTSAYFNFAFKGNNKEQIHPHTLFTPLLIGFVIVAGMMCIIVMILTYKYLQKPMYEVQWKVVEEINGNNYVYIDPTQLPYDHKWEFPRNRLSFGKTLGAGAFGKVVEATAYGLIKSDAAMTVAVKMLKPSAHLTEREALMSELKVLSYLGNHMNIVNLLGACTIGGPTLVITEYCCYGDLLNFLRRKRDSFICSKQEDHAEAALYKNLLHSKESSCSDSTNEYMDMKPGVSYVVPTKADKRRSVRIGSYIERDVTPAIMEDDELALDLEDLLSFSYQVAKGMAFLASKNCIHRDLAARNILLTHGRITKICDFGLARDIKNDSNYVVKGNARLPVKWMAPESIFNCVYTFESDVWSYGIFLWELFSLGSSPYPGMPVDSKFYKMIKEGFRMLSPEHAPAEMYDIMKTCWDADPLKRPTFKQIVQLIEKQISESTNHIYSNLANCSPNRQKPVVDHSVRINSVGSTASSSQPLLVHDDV
T2 sequence (O15197 32-1021): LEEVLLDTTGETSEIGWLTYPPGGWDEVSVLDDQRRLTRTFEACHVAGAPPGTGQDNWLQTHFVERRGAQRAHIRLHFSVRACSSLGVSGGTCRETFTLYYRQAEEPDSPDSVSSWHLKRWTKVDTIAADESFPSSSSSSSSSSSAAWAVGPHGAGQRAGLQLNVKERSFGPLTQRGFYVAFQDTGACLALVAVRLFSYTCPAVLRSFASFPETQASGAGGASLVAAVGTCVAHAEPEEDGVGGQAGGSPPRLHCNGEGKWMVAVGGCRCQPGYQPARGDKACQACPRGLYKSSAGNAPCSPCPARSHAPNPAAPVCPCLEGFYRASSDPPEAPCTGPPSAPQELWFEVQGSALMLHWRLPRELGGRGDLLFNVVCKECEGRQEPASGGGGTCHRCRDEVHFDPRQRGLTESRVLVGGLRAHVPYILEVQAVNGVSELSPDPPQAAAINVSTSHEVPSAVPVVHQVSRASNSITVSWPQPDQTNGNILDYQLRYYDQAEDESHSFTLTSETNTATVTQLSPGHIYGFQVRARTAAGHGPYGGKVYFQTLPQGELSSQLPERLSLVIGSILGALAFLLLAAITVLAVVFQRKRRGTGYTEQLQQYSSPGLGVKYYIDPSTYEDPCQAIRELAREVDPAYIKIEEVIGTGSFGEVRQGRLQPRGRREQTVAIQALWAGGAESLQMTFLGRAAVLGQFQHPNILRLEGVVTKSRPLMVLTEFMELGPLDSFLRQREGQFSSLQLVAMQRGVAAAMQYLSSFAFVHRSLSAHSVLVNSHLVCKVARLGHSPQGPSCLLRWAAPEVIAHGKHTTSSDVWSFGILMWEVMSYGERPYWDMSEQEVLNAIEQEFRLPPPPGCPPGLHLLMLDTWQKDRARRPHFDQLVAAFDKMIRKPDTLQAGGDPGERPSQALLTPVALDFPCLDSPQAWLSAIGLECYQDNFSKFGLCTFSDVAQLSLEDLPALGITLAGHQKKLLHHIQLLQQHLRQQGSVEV
AURKB, sequence (Q96GD4 whole entry): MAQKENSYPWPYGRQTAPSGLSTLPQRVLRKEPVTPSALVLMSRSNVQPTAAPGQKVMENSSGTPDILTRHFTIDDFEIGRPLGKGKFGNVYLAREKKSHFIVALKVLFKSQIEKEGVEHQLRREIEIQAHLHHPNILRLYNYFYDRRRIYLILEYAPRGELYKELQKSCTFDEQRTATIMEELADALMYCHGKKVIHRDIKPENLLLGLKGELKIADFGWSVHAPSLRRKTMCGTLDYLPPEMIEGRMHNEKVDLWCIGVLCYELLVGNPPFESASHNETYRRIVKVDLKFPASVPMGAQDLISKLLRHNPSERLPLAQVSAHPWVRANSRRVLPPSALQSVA
RIPK2, sequence (O43353 whole entry): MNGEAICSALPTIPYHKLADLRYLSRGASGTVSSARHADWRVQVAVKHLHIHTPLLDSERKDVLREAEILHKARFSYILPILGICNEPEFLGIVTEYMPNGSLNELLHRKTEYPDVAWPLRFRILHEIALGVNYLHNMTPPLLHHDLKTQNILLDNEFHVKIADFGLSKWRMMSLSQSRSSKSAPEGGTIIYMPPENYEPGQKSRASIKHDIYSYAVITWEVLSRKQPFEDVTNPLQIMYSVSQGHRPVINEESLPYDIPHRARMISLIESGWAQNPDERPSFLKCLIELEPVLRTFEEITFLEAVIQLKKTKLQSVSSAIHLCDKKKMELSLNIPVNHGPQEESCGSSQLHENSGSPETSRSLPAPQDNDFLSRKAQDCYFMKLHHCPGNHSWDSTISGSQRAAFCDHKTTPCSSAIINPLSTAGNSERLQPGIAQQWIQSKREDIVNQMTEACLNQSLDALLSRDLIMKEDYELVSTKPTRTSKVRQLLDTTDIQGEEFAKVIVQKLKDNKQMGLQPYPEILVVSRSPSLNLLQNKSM
T6 sequence (Q13043 whole entry): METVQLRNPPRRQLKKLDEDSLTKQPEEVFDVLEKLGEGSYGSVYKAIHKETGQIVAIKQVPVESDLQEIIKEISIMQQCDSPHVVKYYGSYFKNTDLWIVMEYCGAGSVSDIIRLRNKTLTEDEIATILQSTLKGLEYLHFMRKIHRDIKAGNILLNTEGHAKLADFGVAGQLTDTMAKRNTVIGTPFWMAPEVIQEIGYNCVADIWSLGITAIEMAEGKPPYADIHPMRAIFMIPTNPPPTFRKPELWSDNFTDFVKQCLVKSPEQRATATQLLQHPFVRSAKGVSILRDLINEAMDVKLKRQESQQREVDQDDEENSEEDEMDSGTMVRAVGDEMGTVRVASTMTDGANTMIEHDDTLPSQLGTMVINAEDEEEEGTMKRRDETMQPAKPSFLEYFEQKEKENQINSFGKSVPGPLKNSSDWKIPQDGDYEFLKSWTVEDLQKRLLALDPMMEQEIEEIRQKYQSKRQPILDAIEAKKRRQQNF

With `Cn1cc(-c2cnc(N)c3c(-c4ccc5c(c4)CCN5C(=O)Cc4ccccc4)csc23)cn1` [GSK'074, GSK2593074A] the remaining binding at 0.1 µM (CSF1R [1]) was < 1%, the remaining binding at 0.1 µM (EPHB6 [2]) was < 1% and the remaining binding at 0.1 µM (KIT [3]) was < 1%. It also gave a Kd (RIP1 [4]) of 12 nM, a Kd (RIP3) of 130 nM and a remaining binding at 0.1 µM (MST1) of 13%. For the same compound, the remaining binding at 0.1 µM (CSF1R [5]) was 0.5%, the remaining binding at 0.1 µM (KIT(L576P)) was 0% and the remaining binding at 0.1 µM (PRKD2) was 32%. For the same compound, the remaining binding at 0.1 µM (MAP4K5) was 5.5%, the remaining binding at 0.1 µM [6] was 2.2% and the remaining binding at 0.1 µM (AURKC) was 19%. For the same compound, the remaining binding at 0.1 µM [7] was 24%, the remaining binding at 0.1 µM [8] was 19% and the remaining binding at 0.1 µM (FLT3) was 19%. For the same compound, the remaining binding at 0.1 µM (KIT(V559D)) was 0.05%, the remaining binding at 0.1 µM (ABL1-nonphosphorylated) was 3.3% and the remaining binding at 0.1 µM (RIPK2) was 12%. For the same compound, the remaining binding at 0.1 µM (MEK5 [9]) was 0.1%, the remaining binding at 0.1 µM (ABL1-phosphorylated) was 25% and the remaining binding at 0.1 µM [10] was 6.1%. The remaining binding at 0.1 µM (AURKB) was 9.3%, the remaining binding at 0.1 µM (PDGFRB) was 1.3% and the remaining binding at 0.1 µM (KIT [11]) was 0.35%. The remaining binding at 0.1 µM (HPK1) was 30%, the remaining binding at 0.1 µM (PDGFRA) was 13% and the remaining binding at 0.1 µM (FLT3(K663Q)) was 30%. It also gave a remaining binding at 0.1 µM [12] of 0.3%, a remaining binding at 0.1 µM (RIP1 [13]) of 0% and a remaining binding at 0.1 µM (LOK) of 30%. The remaining binding at 0.1 µM (EPHB6 [14]) was 0.5% and the remaining binding at 0.1 µM (MEK5 [15]) was < 1%.
